Data on eight molecules can be found in US4835162A (priority 1987, dated 1989).

“And” between values parts separate entries of the source, which are not always exact repeats. Equal values may be shown once. “Also recorded” adds a separate entry of the source. Read-outs that look alike come from different tables or passages of the source.

For data set [1], the target named is nicotinic receptors (rat brain membranes). Format: binding. The note with it: for IC50: read-out: 3H-Nicotine Binding IC50.
For data set [2], the system named is rats. In words: animal or person. Conditions: Rattus norvegicus, iv, read-out: Antagonistic dose needed to completely block elevation in systolic blood pressure.
The test system of data set [3] is rats. The note with it: rat, in vivo.
Data set [4] deals with rats. The note with it: rat, in vivo. This is another data set of the same source.
Data set [5] concerns rats. Also on record: species or system Sprague-Dawley male rats; Blockade of (nicotine-induced prostration) EC50: unit not given here. Conditions: rat, in vivo.
Data set [6] relates to rats. Kind of data set: animal or person. The note with it: Rattus norvegicus, ip, 7 min, read-out: % Antagonism (seizures).
Data set [7] has as its target nicotinic receptors (rat brain membranes). The note with it: read-out: 3H-MCC Binding IC50.
For another data set, the system named is rat brain. Conditions: cited from earlier work.
Data set [8] has as its system rats. The note with it: rat, in vivo. The source holds these as a separate data set.
Data set [9] addresses nicotinic receptors (rat brain membranes). The class given is binding. The note with it: pH 7; read-out: [3H]-MCC IC50.
The next data set concerns rats or mice. Conditions: in vivo; cited from earlier work.
The target of data set [10] is nicotinic receptors (rat brain membranes). Format: binding.
The subject of data set [11] is rats. The note with it: rat, in vivo. This is another data set of the same source.
Data set [12] deals with rats. Conditions: rat, in vivo. This is another data set of the same source.
For data set [13] the following is noted: in vivo; cited from earlier work.
Data set [14] has as its system nicotinic receptors (rat brain membranes).
Data set [15] has as its system rat liver microsomal system. The note with it: cited from earlier work.

As for `C[N+](C)(C)CCOC(=O)Nc1ccccc1` [TMAE phenylcarbamate], the half-inhibitory concentration (IC50) (commonly the concentration that inhibits the measured activity by half) in [1] was found to be 6 µM. In addition, the ED100 with rats [2] was 5 ± 1 mg/kg. Further, in the data set on rats [3], the “% Antagonism (protection against nicotine mortality)” value is listed as 50% and the Mortality is 4/10. In the data set on rats [4], the Seizures is 1/9 and the “protection against seizures, in words” value is listed as “almost complete protection”. For the same molecule, in the data set on rats [5], the “Blockade of (nicotine-induced prostration) EC50” value turned out to be 200; the “blockade of nicotine-induced prostration / antagonism, in words” value is “next in effectiveness and of comparable activity”. Further, the responders at 25 mg/kg with rats [6] was 89%. Moreover, in data set [7], the half-maximal inhibitory concentration (IC50) was 0.8 µM.
On to `CC(=O)OCC[N+](C)(C)C` [[^3 H]-acetylcholine], for which, in the data set on rat brain, the “displaceability of [3H]-acetylcholine binding by muscarinic antagonists” value was “displaceable by low concentrations of muscarinic antagonists”.
Take `C[N+]1(C)CCCC1c1cccnc1` (stereo not drawn) [N'--methyl nicotonium]: the IC50 amounted to 7 µM in [1] (pH 7.5); 4 µM in data set [9]; 7 µM in data set [10] (pH 7, read-out: [3H]-nicotine IC50); 4 µM in data set [7] (pH 7.5). Besides, the “decrease in psychotropic potency with quaternization of nicotine” value in the data set on rats [8] was determined as 50 fold. The “potency in producing seizures and mortality, in words” value in the data set on rats or mice is “more potent than nicotine in producing seizures and mortality”. The “Prostration EC50” value in the data set on rats [11] was found to be 100.
Consider `C[N+](C)(C)CCOC(=O)c1ccccc1` [TMAE benzoate, benzoylcholine], for which the “Antagonistic dose needed to completely block elevation in systolic blood pressure” value in the data set on rats [12] is 1.5 ± 0.3 mg/kg. Further, the ED100 in the data set on rats [2] was determined as 1.5 mg/kg. Also, in the data set with rats [3], the “% Antagonism (protection against nicotine mortality)” value was found to be 63% and the Mortality was 3/10. Besides, in the data set on rats [4], the Seizures is reported as 1/8 and the “blockade of seizure activity” value was determined as 78%. In the data set with rats [5], the “Blockade of (nicotine-induced prostration) EC50” value worked out at 10 and the “times as effective as the DMAE ester” value is given as 5 times. In the data set with rats [6], the responders at 25 mg/kg worked out at 78%.
For `CN1[C@@H](CC(=O)c2ccccc2)CCC[C@H]1C[C@H](O)c1ccccc1` [α-lobeline, reference compound], in data set [1], the “binding affinity for nicotine receptor, in words” value is recorded as “even greater affinity than (-)-nicotine for the receptor; also recorded: very high affinity for brain nicotine receptors” and the IC50 was 0.005 µM. Also, the “Antagonistic dose needed to completely block elevation in systolic blood pressure” value in the data set with rats [12] was 0.2 ± 0.05 mg/kg. Besides, in the data set on rats [2], the ED100 is 0.2 mg/kg. Moreover, in the data set on rats [3], the “% Antagonism (reduction of nicotine mortality)” value turned out to be 75% and the Mortality is reported as 2/10. In addition, in the data set on rats [4], the Seizures was 1/8 and the “protection against seizures, in words” value was “complete protection against seizures”. Moreover, the “pharmacologic effects, in words” value in data set [13] is “suppress the desire for tobacco; also recorded: hypertensive action resulting from the stimulation of the carotid body; also recorded: broncio-construction; also recorded: brochoarrythmia”. In the data set on rats [5], the “Blockade of (nicotine-induced prostration) EC50” value is given as 10 and the “blockade of nicotine-induced prostration / antagonism, in words” value is “most effective antagonist”. Besides, in the data set with rats [6], the responders at 5 mg/kg worked out at 0%. For the same molecule, the half-inhibitory concentration (IC50) in data set [7] turned out to be 0.0007 µM.
Regarding `CN1CCCC1c1cccnc1` (single isomer, unassigned; (-)) [[^3 H]-nicotine, (-)-[^3 H]-nicotine], the “displaceability of [3H]-nicotine binding by muscarinic antagonists” value in data set [10] was “not displaceable by muscarinic cholinergic antagonists”. Besides, in data set [14], the “Bmax of higher affinity site, [3H]-nicotine” value amounted to 5e-15 mol/mg; the “Bmax of lower affinity site, [3H]-nicotine” value was 1e-14 mol/mg and 2e-14 mol/mg.
Turning to `CN1CCCC1c1cccnc1` (single isomer, unassigned; (-)) [(-)-nicotine], in the data set with rats [8], the “dose producing effect: prostration, in words” value is “prostration of all four limbs”; the “times more effective than (+)-enantiomer of nicotine (prostration)” value was 20 times; the “times more potent than N'-ethyl analogue (prostration)” value was determined as 10 times; the “times more potent than N'-propyl analogue (prostration)” value came to 40 times. In addition, in the data set on rats [8], the “times more potent than nicotonium analogue (prostration)” value is on record as 50 times and the “volume of nicotine solution required to produce prostration” value is 1-2 μl of a 10^-3 M solution. Moreover, the “increase in systolic blood pressure by nicotine” value in the data set on rats [12] (iv) was found to be 25%. Also, in the data set on rats [3] (ip, 3 mg/kg), the Mortality was 8/10. In the data set with rats [4], the “signs after nicotine, in words” value was “prostration followed by tremors, fasciculations, cyanosis and labored breathing, and myoclonic seizures”. For the same molecule, the Seizures in the data set on rats [4] (ip, 1.5 mg/kg) was 10/10. Further, in the data set with rats [11], the “Prostration EC50” value came to 2; the “agonist or inactive on prostration, in words” value was “agonists”; the duration of prostration was in the range of 2 to 4 min; the “onset of prostration response” value lay in the range of 1 to 3 s. Also, in the data set on rats [11], the “respiratory effect, in words” value was “deep diaphragmatic breathing and a decreased respiratory rate”.
As for `CNC(=O)OCC[N+](C)(C)C` [MCC, Methylcarbamylcholine], in the data set with rats [8], the “increase in psychotropic potency after quaternization of DMAE methyl carbamate” value is “over 10 fold” and the “potency relative to (-)-nicotine (prostration)” value is recorded as 1/5. Further, in the data set with rats [11], the “Prostration EC50” value was 10 and the duration of prostration entry is “over 20 min”. The metabolism entry in data set [15] is “metabolized by a rat liver microsomal system”.
